Test results: US11834680B2, “Single kidney cell-derived organoids” (Rutgers, The State University of New Jersey, priority 2017, dated 2023)

Tests used:
[1] = test system: cultured nephron progenitor cells; assay: Effect of activating Wnt signaling on kidney organoid formation, shape and size; assay type: cell-based, human
Description: The organoids generated from multiple patient samples had various phenotypes during the different times of 2D culture. A similar diversity in phenotypes was also detected in the 3D culture stage. Moreover, the organoids formed in 3D culture had both spherical or branching shapes. When […] (1 μM) was added to the media as a pulse for 12 h then media was replaced with fresh media without CHIR, branching tubular shaped organoids increased. In another group of experiments, the effects of addition of 1× B27 supplement were examined.
The Wnt signaling pathway is known to trigger the initiation of nephron progenitor cell differentiation. The effects of activating Wnt signaling in organoid studies was examined. Cultured 2D and 3D cells were treated with a GSK3 inhibitor CHIR99021 (CHIR), which activates the canonical Wnt signaling pathway. […] On the other hand, branching tubular shaped organoids increased.

[2] = test system: Nephrectomy-derived normal adjacent tissue (NAT) and RCC cells; assay: Organoid forming efficiency (OFE) of kidney cells in 2D stage I / 3D Matrigel stage II culture; assay type: cell-based, human
Text: The human kidney contains up to 2 million epithelial nephrons responsible for blood filtration. Regenerating the kidney requires the induction of the more than 20 distinct cell types required for excretion and the regulation of pH, and electrolyte and fluid balance. Herein is described the induction of progenitors for both collecting duct and nephrons via the directed differentiation of patient-derived normal and RCC cells derived from nephrectomy tissues. Under an IRB-approved protocol, nephrectomy specimens from high-risk RCC cases were collected and processed within 15 minutes of surgery. Areas containing tumor as deemed by the pathologist and normal adjacent tissue counterpart were microdissected. A 3D culture system fit for growth of kidney cells was first developed by isolating epithelial cells microdissected from primary RCC specimens. Qualified pathologists confirmed their renal origin from the corresponding H&E. Nephrectomy-derived normal adjacent tissue (NAT) and RCC cells were utilized to determine best conditions for generating organoids. A two-step methodology comprising a first phase of adult kidney stem cell enrichment, conducted in a 2D setting (stage I), followed by a second phase of organoid 3D growth obtained in pure matrigel chambers (stage II), was conducted. […] Stage I media included using either EGM2 or ADMED complete medium (with the addition of EGF, BFGF, IGF-1, VEGF, hydrocortisone, ascorbic acid, insulin, heparin, gentamicin, amphotericin-B, and 2% FBS).
Cells were placed in 3D droplet culture chambers in stage II complete media containing Matrigel, to mimic the basal lamina of the normal renal tissue, and growth factors in conditions that permits cellular self-organization of organoid forming cells. Kidney cells were embedded as single cells in 3D-well plates. Organoid formation was then followed microscopically daily for 2 weeks.

[3] = cultured 2D and 3D cells treated

Compound: Cc1c[nH]c(-c2cnc(NCCNc3ccc(C#N)cn3)nc2-c2ccc(Cl)cc2Cl)n1 [CHIR99021]
- branching tubular shaped organoids ([1]; 1 μM added to the media as a pulse for 12 h, then fresh media): increased
- cell death [1, 3]: accompanied by cell death
- differentiation in cultured nephron progenitor cells [1, 3]: induced differentiation
- organoid size [1, 3]: smaller size organoids
- branching tubular shaped organoids ([1]; cultured 2D and 3D cells treated, concentration not given): increased

Compound: IGF-1: Insulin Growth Factor 1, culture medium supplement
- organoid forming efficiency (OFE) ([2]; addition to the culture media): improved
- organoid forming efficiency (OFE) ([2]; doubling the IGF-1 dose (2×) in culture): did not increase

Compound: Insulin: culture medium supplement
- organoid forming efficiency (OFE) ([2]; addition to the culture media): improved

Compound: VEGF
- organoid forming efficiency (OFE) ([2]; addition to the culture media): improved

Compound: heparin
- organoid forming efficiency (OFE) ([2]; addition to the culture media): improved
